In patent US10588317B2, “Isoxazoline-substituted benzamides and analogues as insecticides” (priority 2015, dated 2020):

Assays:
Assay type in all cases: in vivo
Plutella xylostella = Plutella xylostella (diamond back moth), artificial diet; details: 120 h, application rate 200 ppm, L2 larvae, 5 days after infestation, read-out: effect in at least one of the two categories (mortality or growth inhibition)
Outline: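 L2 larvae (10-15 per well) fed on compound-treated, dried artificial diet; test solutions diluted in water from 10'000 ppm DMSO stocks. Readout 5 days post-infestation as mortality or growth inhibition versus untreated diet, with at least 80% effect at 200 ppm as threshold.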

Myzus persicae = Myzus persicae (green peach aphid): feeding/contact activity; details: 144 h, application rate 200 ppm, aphid population of mixed ages, 6 days after infestation, read-out: mortality
Method: (§1) Sunflower leaf discs were placed onto agar in a 24-well microtiter plate and sprayed with aqueous test solutions prepared from 10'000 ppm DMSO stock solutions. After drying, the leaf discs were infested with an aphid population of mixed ages. The samples were assessed for mortality 6 days after infestation.

Tetranychus urticae = Tetranychus urticae (two-spotted spider mite): feeding/contact activity; details: 192 h, application rate 200 ppm, mixed population (mobile stages), 8 days after infestation, read-out: mortality
Method: Bean leaf discs on agar in 24-well microtiter plates were sprayed with aqueous test solutions prepared from 10'000 ppm DMSO stock solutions. After drying the leaf discs were infested with a mite population of mixed ages. The samples were assessed for mortality on mixed population (mobile stages) 8 days after infestation.

Spodoptera littoralis [1] = experiment: Spodoptera littoralis (Egyptian cotton leaf worm), sprayed cotton leaf discs; details: foliar, 72 h, application rate 200 ppm, L1 larvae, 3 days after infestation, read-out: control (mortality, anti-feeding effect, growth inhibition)
Outline: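 Five first-instar larvae placed on dried cotton leaf discs (on agar) previously sprayed with aqueous dilutions of 10'000 ppm DMSO stocks. Scored at 3 days against untreated discs for mortality, feeding inhibition and growth inhibition; any category above untreated counts as control.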

Thrips tabaci = Thrips tabaci (onion thrips): feeding/contact activity; details: 144 h, application rate 200 ppm, Thrips population of mixed ages, 6 days after infestation, read-out: mortality
Method: as §1, with “on” for “onto”, “in” for “in a”, “plates” for “plate”, “drying” for “drying,”, “a Thrips” for “an aphid”

Euschistus heros = Euschistus heros (neotropical brown stink bug), sprayed soybean leaves; details: 120 h, application rate 200 ppm, N2 nymphs, 5 days after infestation, read-out: effect in at least one of the two categories (mortality or growth inhibition)
Outline: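 Scored 5 days post-infestation versus untreated controls, for both mortality and growth inhibition: N2 nymphs placed on agar-mounted soybean leaves previously sprayed at 200 ppm with aqueous test solutions from DMSO stocks and left to dry.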

Spodoptera littoralis [2] = experiment: Spodoptera littoralis (Egyptian cotton leaf worm), uptake by lettuce roots from agar; details: 144 h, read-out: effect in at least one of the three categories (mortality, anti-feeding, or growth inhibition)
Outline: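 Systemic test: Spodoptera eggs placed on lettuce leaves from seedlings raised 7 days on agar containing the compound (diluted from 10'000 ppm DMSO stock). Six days after infestation, larvae scored against untreated controls for mortality, feeding deterrence and growth inhibition.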

Diabrotica balteata = Diabrotica balteata (corn root worm), sprayed maize sprouts; details: 96 h, application rate 200 ppm, L2 larvae, 4 days after infestation, read-out: effect in at least one of the two categories (mortality or growth inhibition)
Outline: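 Read-out at 4 days post-infestation: mortality and growth inhibition relative to untreated samples. Test solutions (200 ppm, from DMSO stocks) were sprayed onto agar-held maize sprouts, which after drying received 6–10 L2 larvae per well.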

CCN(CC)S(=O)(=O)N1CC(NC(=O)c2ccc(C3=NO[C@@](c4cc(Cl)c(F)c(Cl)c4)(C(F)(F)F)C3)cc2C)CO1 (stereo partly drawn) [Compound A98, 4-[(5S)-5-(3,5-dichloro-4-fluoro-phenyl)-5-(trifluoromethyl)-4H-isoxazol-3-yl]-N-[2-(diethylsulfamoyl)isoxazolidin-4-yl]-2-methyl-benzamide]
≥ 80%: percent effect (mortality or growth inhibition) at 200 ppm (Plutella xylostella) | mortality at 200 ppm (Myzus persicae) | mortality at 200 ppm (Tetranychus urticae) | mortality at 200 ppm (Spodoptera littoralis [1]) | mortality at 200 ppm (Thrips tabaci) | percent effect (mortality or growth inhibition) at 200 ppm (Euschistus heros) | percent control (mortality, anti-feedant effect or growth inhibition) at 12.5 ppm (Spodoptera littoralis [2]) | percent effect (mortality or growth inhibition) at 200 ppm (Diabrotica balteata)

C=CCNS(=O)(=O)N1CC(NC(=O)c2ccc(C3=NO[C@@](c4cc(Cl)c(F)c(Cl)c4)(C(F)(F)F)C3)cc2C)CO1 (stereo partly shown) [Compound A105]
≥ 80%: percent effect (mortality or growth inhibition) at 200 ppm (Plutella xylostella) | mortality at 200 ppm (Myzus persicae) | mortality at 200 ppm (Tetranychus urticae) | mortality at 200 ppm (Spodoptera littoralis [1]) | mortality at 200 ppm (Thrips tabaci) | percent effect (mortality or growth inhibition) at 200 ppm (Euschistus heros) | percent control (mortality, anti-feedant effect or growth inhibition) at 12.5 ppm (Spodoptera littoralis [2]) | percent effect (mortality or growth inhibition) at 200 ppm (Diabrotica balteata)

CN(C)S(=O)(=O)N1C[C@@H](NC(=O)c2ccc(C3=NO[C@@](c4cc(Cl)c(F)c(Cl)c4)(C(F)(F)F)C3)cc2Cl)CO1 [Compound A107]
≥ 80%: percent effect (mortality or growth inhibition) at 200 ppm (Plutella xylostella) | mortality at 200 ppm (Myzus persicae) | mortality at 200 ppm (Tetranychus urticae) | mortality at 200 ppm (Spodoptera littoralis [1]) | mortality at 200 ppm (Thrips tabaci) | percent effect (mortality or growth inhibition) at 200 ppm (Euschistus heros) | percent control (mortality, anti-feedant effect or growth inhibition) at 12.5 ppm (Spodoptera littoralis [2]) | percent effect (mortality or growth inhibition) at 200 ppm (Diabrotica balteata)

CN(C)S(=O)(=O)N1C[C@@H](NC(=O)c2ccc(C3=NO[C@@](c4cc(Cl)cc(C(F)(F)F)c4)(C(F)(F)F)C3)cc2Cl)CO1 [Compound A108]
≥ 80%: percent effect (mortality or growth inhibition) at 200 ppm (Plutella xylostella) | mortality at 200 ppm (Myzus persicae) | mortality at 200 ppm (Tetranychus urticae) | mortality at 200 ppm (Spodoptera littoralis [1]) | mortality at 200 ppm (Thrips tabaci) | percent effect (mortality or growth inhibition) at 200 ppm (Euschistus heros) | percent control (mortality, anti-feedant effect or growth inhibition) at 12.5 ppm (Spodoptera littoralis [2]) | percent effect (mortality or growth inhibition) at 200 ppm (Diabrotica balteata)

CN(C)S(=O)(=O)N1C[C@@H](NC(=O)c2ccc(C3=NO[C@@](c4cc(Cl)c(Cl)c(Cl)c4)(C(F)(F)F)C3)cc2Cl)CO1 [Compound A109, 2-chloro-N-[(4R)-2-(dimethylsulfamoyl)isoxazolidin-4-yl]-4-[(5S)-5-(3,4,5-trichlorophenyl)-5-(trifluoromethyl)-4H-isoxazol-3-yl]benzamide]
≥ 80%: percent effect (mortality or growth inhibition) at 200 ppm (Plutella xylostella) | mortality at 200 ppm (Myzus persicae) | mortality at 200 ppm (Tetranychus urticae) | mortality at 200 ppm (Spodoptera littoralis [1]) | mortality at 200 ppm (Thrips tabaci) | percent effect (mortality or growth inhibition) at 200 ppm (Euschistus heros) | percent control (mortality, anti-feedant effect or growth inhibition) at 12.5 ppm (Spodoptera littoralis [2]) | percent effect (mortality or growth inhibition) at 200 ppm (Diabrotica balteata)

Cc1cc(C2=NO[C@@](c3cccc(C(F)(F)F)c3)(C(F)(F)F)C2)ccc1C(=O)N[C@H]1CON(S(=O)(=O)N(C)C)C1 [Compound A111]
≥ 80%: percent effect (mortality or growth inhibition) at 200 ppm (Plutella xylostella) | mortality at 200 ppm (Myzus persicae) | mortality at 200 ppm (Tetranychus urticae) | mortality at 200 ppm (Spodoptera littoralis [1]) | mortality at 200 ppm (Thrips tabaci) | percent effect (mortality or growth inhibition) at 200 ppm (Euschistus heros) | percent effect (mortality, anti-feeding or growth inhibition) at 12.5 ppm (Spodoptera littoralis [2]; test rate 12.5 ppm, eggs, 6 days after infestation) | percent effect (mortality or growth inhibition) at 200 ppm (Diabrotica balteata)

CCNS(=O)(=O)N1C[C@@H](NC(=O)c2ccc(C3=NO[C@@](c4cc(Cl)cc(Cl)c4)(C(F)(F)F)C3)cc2Cl)CO1 [Compound A113, 2-chloro-4-[(5S)-5-(3,5-dichlorophenyl)-5-(trifluoromethyl)-4H-isoxazol-3-yl]-N-[(4R)-2-(ethylsulfamoyl)isoxazolidin-4-yl]benzamide]
≥ 80%: percent effect (mortality or growth inhibition) at 200 ppm (Plutella xylostella) | mortality at 200 ppm (Myzus persicae) | mortality at 200 ppm (Tetranychus urticae) | mortality at 200 ppm (Spodoptera littoralis [1]) | mortality at 200 ppm (Thrips tabaci) | percent effect (mortality or growth inhibition) at 200 ppm (Euschistus heros) | percent control (mortality, anti-feedant effect or growth inhibition) at 12.5 ppm (Spodoptera littoralis [2]) | percent effect (mortality or growth inhibition) at 200 ppm (Diabrotica balteata)

CNS(=O)(=O)N1C[C@@H](NC(=O)c2ccc(C3=NO[C@@](c4cc(Cl)cc(Cl)c4)(C(F)(F)F)C3)cc2Cl)CO1 [Compound A114, 2-chloro-4-[(5S)-5-(3,5-dichlorophenyl)-5-(trifluoromethyl)-4H-isoxazol-3-yl]-N-[(4R)-2-(methylsulfamoyl)isoxazolidin-4-yl]benzamide]
≥ 80%: percent effect (mortality or growth inhibition) at 200 ppm (Plutella xylostella) | mortality at 200 ppm (Myzus persicae) | mortality at 200 ppm (Tetranychus urticae) | mortality at 200 ppm (Spodoptera littoralis [1]) | mortality at 200 ppm (Thrips tabaci) | percent effect (mortality or growth inhibition) at 200 ppm (Euschistus heros) | percent control (mortality, anti-feedant effect or growth inhibition) at 12.5 ppm (Spodoptera littoralis [2]) | percent effect (mortality or growth inhibition) at 200 ppm (Diabrotica balteata)

CNS(=O)(=O)N1C[C@@H](NC(=O)c2ccc(C3=NO[C@@](c4cc(Cl)cc(C(F)(F)F)c4)(C(F)(F)F)C3)cc2Cl)CO1 [Compound A115, 2-chloro-4-[(5S)-5-[3-chloro-5-(trifluoromethyl)phenyl]-5-(trifluoromethyl)-4H-isoxazol-3-yl]-N-[(4R)-2-(methylsulfamoyl)isoxazolidin-4-yl]benzamide]
≥ 80%: percent effect (mortality or growth inhibition) at 200 ppm (Plutella xylostella) | mortality at 200 ppm (Myzus persicae) | mortality at 200 ppm (Tetranychus urticae) | mortality at 200 ppm (Spodoptera littoralis [1]) | mortality at 200 ppm (Thrips tabaci) | percent effect (mortality or growth inhibition) at 200 ppm (Euschistus heros) | percent control (mortality, anti-feedant effect or growth inhibition) at 12.5 ppm (Spodoptera littoralis [2]) | percent effect (mortality or growth inhibition) at 200 ppm (Diabrotica balteata)

CS(=O)(=O)N1C[C@@H](NC(=O)c2ccc(C3=NO[C@@](c4cc(Cl)cc(Cl)c4)(C(F)(F)F)C3)cc2Cl)CO1 [Compound A116]
≥ 80%: percent effect (mortality or growth inhibition) at 200 ppm (Plutella xylostella) | mortality at 200 ppm (Myzus persicae) | mortality at 200 ppm (Tetranychus urticae) | mortality at 200 ppm (Spodoptera littoralis [1]) | mortality at 200 ppm (Thrips tabaci) | percent effect (mortality or growth inhibition) at 200 ppm (Euschistus heros) | percent control (mortality, anti-feedant effect or growth inhibition) at 12.5 ppm (Spodoptera littoralis [2]) | percent effect (mortality or growth inhibition) at 200 ppm (Diabrotica balteata)

CCS(=O)(=O)N1C[C@@H](NC(=O)c2ccc(C3=NO[C@@](c4cc(Cl)cc(Cl)c4)(C(F)(F)F)C3)cc2Cl)CO1 [Compound A117]
≥ 80%: percent effect (mortality or growth inhibition) at 200 ppm (Plutella xylostella) | mortality at 200 ppm (Myzus persicae) | mortality at 200 ppm (Tetranychus urticae) | mortality at 200 ppm (Spodoptera littoralis [1]) | mortality at 200 ppm (Thrips tabaci) | percent effect (mortality or growth inhibition) at 200 ppm (Euschistus heros) | percent control (mortality, anti-feedant effect or growth inhibition) at 12.5 ppm (Spodoptera littoralis [2]) | percent effect (mortality or growth inhibition) at 200 ppm (Diabrotica balteata)

CCS(=O)(=O)N1C[C@@H](NC(=O)c2ccc(C3=NO[C@@](c4cc(Cl)c(Cl)c(Cl)c4)(C(F)(F)F)C3)cc2C)CO1 [Compound A118]
≥ 80%: percent effect (mortality or growth inhibition) at 200 ppm (Plutella xylostella) | mortality at 200 ppm (Myzus persicae) | mortality at 200 ppm (Tetranychus urticae) | mortality at 200 ppm (Spodoptera littoralis [1]) | mortality at 200 ppm (Thrips tabaci) | percent effect (mortality or growth inhibition) at 200 ppm (Euschistus heros) | percent control (mortality, anti-feedant effect or growth inhibition) at 12.5 ppm (Spodoptera littoralis [2]) | percent effect (mortality or growth inhibition) at 200 ppm (Diabrotica balteata)

CCS(=O)(=O)N1C[C@@H](NC(=O)c2ccc(C3=NO[C@@](c4cc(Cl)c(F)c(Cl)c4)(C(F)(F)F)C3)cc2C)CO1 [Compound A119]
≥ 80%: percent effect (mortality or growth inhibition) at 200 ppm (Plutella xylostella) | mortality at 200 ppm (Myzus persicae) | mortality at 200 ppm (Tetranychus urticae) | mortality at 200 ppm (Spodoptera littoralis [1]) | mortality at 200 ppm (Thrips tabaci) | percent effect (mortality or growth inhibition) at 200 ppm (Euschistus heros) | percent control (mortality, anti-feedant effect or growth inhibition) at 12.5 ppm (Spodoptera littoralis [2]) | percent effect (mortality or growth inhibition) at 200 ppm (Diabrotica balteata)

CCS(=O)(=O)N1C[C@@H](NC(=O)c2ccc(C3=NO[C@@](c4cc(Cl)cc(C(F)(F)F)c4)(C(F)(F)F)C3)cc2C)CO1 [Compound A120, 4-[(5S)-5-[3-chloro-5-(trifluoromethyl)phenyl]-5-(trifluoromethyl)-4H-isoxazol-3-yl]-N-[(4R)-2-ethylsulfonylisoxazolidin-4-yl]-2-methyl-benzamide]
≥ 80%: percent effect (mortality or growth inhibition) at 200 ppm (Plutella xylostella) | mortality at 200 ppm (Myzus persicae) | mortality at 200 ppm (Tetranychus urticae) | mortality at 200 ppm (Spodoptera littoralis [1]) | mortality at 200 ppm (Thrips tabaci) | percent effect (mortality or growth inhibition) at 200 ppm (Euschistus heros) | percent control (mortality, anti-feedant effect or growth inhibition) at 12.5 ppm (Spodoptera littoralis [2]) | percent effect (mortality or growth inhibition) at 200 ppm (Diabrotica balteata)
